Each structure is given as a SMILES string. Marks after values point to notes of the source that are not given here. Bounds are passed on as bounds.

The test system of assay [1] is Salmonella typhi. The assay is described as follows: Example 4 irradiation sensitivity (D10) of S. typhi in ground beef. It is filed as cell-based. The note with it: carvacrol 1.15%, thymol 1.60%. As for the experimental part:
(§1) Irradiation treatments of ground beef samples for D10 and shelf life determination were performed using UC-15B irradiator (MDS-Nordion International Inc., Kanata, ON, Canada) equipped with a ^60 Co source at a dose rate of 14.42 kGy/h). Irradiation doses used for D10 determination were ranged from 0.25 to 0.55 kGy for E. coli, from 0.50 to 2.0 kGy for S. typhi, and from 0.5 to 2.5 kGy for the mixture of indigenous microorganisms of ground beef. The shelf life study was performed on samples irradiated at 0.30, 0.85, and 1.75 kGy for E. coli, S. typhi, and the mixture of indigenous microorganisms of ground beef, respectively. For each active compound concentration tested, a group of non-irradiated samples sened as a control. For D10 determination, samples were analysed immediately after irradiation. For shelf life studies, samples were stored at 4° C. and analysed periodically.
(§2) Microbial analysis was performed by homogenising the samples for 2 mn in sterile peptone water (0.1%) using a Lab-blender 400 stomacher (Laboratory Equipment, London, UK). […]
(§3) The kinetics of bacteria destruction by irradiation with or without the food additives was evaluated by linear regression. Bacterial counts (log CFU/ml) were plotted against irradiation doses or active compounds concentration and D10 values were calculated using the PROC REG procedure of SAS (SAS Institute, Cary, N.C., USA). […]

In assay [2] the test system is Mixture of indigenous bacteria. The assay can be described thus: Example 4 irradiation sensitivity (D10) of indigenous bacteria of ground beef. Format: cell-based. The conditions noted are these: thymol […], trans-cinnamaldehyde […]. As for the experimental part: as §1, §2, §3
The test system of assay [3] is S. typhi. The assay can be described thus: Shelf life study, S. typhi in ground beef irradiated at 0.85 kGy. It is filed as cell-based, Salmonella typhi. The note with it: stored at 4° C., thymol 1.6%. As for the experimental part: as §1
(§4) Microbial analysis was performed by homogenising the samples for 2 mn in sterile peptone water (0.1%) using a Lab-blender 400 stomacher (Laboratory Equipment, London, UK). From this mixture, serial dilutions were prepared and appropriate ones were pour-plated in tryptic soy agar (TSA) (Difco, Laboratories, Detroit, Mich., USA) and incubated at 35° C., 24 hours for the numeration of E. coli and S. typhi. For the ground beef broth, the incubation was performed on Plate Count Agar (PCA; Difco) at 35° C. for 48 h for the numeration mesophilic bacteria, and at 7° C. for 10 days for the numeration of psychrotrophic bacteria. Enterobacteriaceae were numerated on Violet Red Bile Glucose Agar (VRBGA; Difco) 35° C. for 48 hours.
(§5) A shelf life study was undertaken to evaluate the radiation sensitivity during refrigerated storage conditions. Ground beef samples contaminated with E. coli, S. typhi, or a mixture of indigenous micro-organisms were irradiated in presence or absence of selected active compounds. Due to the differences in sensitivity between the micro-organisms under study, the following irradiation doses were used: 0.30 kGy for E. coli, 0.85 kGy for S. typhi, and 1.75 kGy for the mixture of indigenous bacteria. The irradiation doses selected corresponded to the irradiation dose needed to produce 3 log CFU reduction in bacterial population in the control sample (without active compounds).

Assay [4] has as its system mixture of indigenous microorganisms of ground beef (mesophilic and psychrotrophic bacteria). The assay is described as follows: Shelf life study, indigenous micro-organisms of ground beef, statements for mesophilic and psychrotrophic bacteria together. It is filed as cell-based. The note with it: for reduction of bacterial counts by irradiation: control 3 log CFU; for storage time before a bacterial count of approximately 6 log is reached: meat treated with formulation in conjunction with irradiation, about 8 days with irradiation alone. How it is done: as §1, §4, §5
(§6) The shelf life study in ground beef contaminated with the mixture of indigenous microorganisms of ground beef was conducted by evaluating mesophilic, psychrotrophic and total Enterobacteriaceae in the samples. […] Irradiation reduced the bacterial counts by various degrees depending on the type of active compound used: 3 log CFU reduction for control (without active compounds), 3.5 and more than 5 log CFU reduction for samples containing thymol and trans-cinnamaldehyde, respectively. […] Bacterial counts in both sarnples remained below detectable levels even after 44 days. […] A similar effect was also observed during storage for irradiated samples containing thymol as compared to samples without thymol. Between day 5 and day 15, a difference of 2 to 3 log CFU was observed between the two groups of samples.

Assay [5] deals with mesophilic bacteria. The assay can be described thus: Shelf life study, indigenous micro-organisms of ground beef, mesophilic count. Format: cell-based. The note with it: for shelf life period: 4° C., thymol […]. As for the experimental part: as §1, §4, §5, §6
The subject of assay [6] is psychrotrophic bacteria. The assay is described as follows: Shelf life study, indigenous micro-organisms of ground beef, psychrotrophic count. Format: cell-based. How it is done: as §1, §4
A shelf life study was undertaken to evaluate the radiation sensitivity during refrigerated storage conditions. Ground beef samples contaminated with E. coli, S. typhi, or a mixture of indigenous micro-organisms were irradiated in presence or absence of selected active compounds. […]

Assay [7] deals with E. coli. The assay can be described thus: Irradiation sensitivity (D10) of E. coli in ground beef. It is filed as cell-based, Escherichia coli (ATCC 25922).
Assay [8] concerns S. typhi. The assay is described as follows: Effect of carvacrol concentration on survival of S. typhi in ground beef irradiated at 0.5 kGy. It is filed as cell-based, Salmonella typhi (ATCC 19430). The conditions noted are these: ground beef irradiated at 0.50 kGy; for Increase in Sensitivity: vs 0% carvacrol. The source says: The irradiation treatments of ground beef samples for D10 determination was done using UC-15B irradiator (MDS-Nordion International Inc., Kanata, ON, Canada) equipped with a ^60Co source at a dose rate of 14.42 kGy/h). Irradiation doses used for D10 determination were ranged from 0.1 to 0.6 kGy for E. coli and from 0.50 to 2.0 kGy for S. typhi. Under frozen condition, the irradiation doses ranged from 0.1 to 0.7 kGy for E. coli and from 0.5 to 3.0 kGy for S. typhi. For the determination of the effect of various concentrations of carvacrol on the irradiation sensitivity, samples were irradiated at 0.25 kGy for E. coli and at 0.5 kGy for S. typhi. Irradiation doses used for D10 determination in chicken breast ranged from 0.1 to 0.7 kGy for E. coli and from 0.25 to 2.0 kGy for S. typhi. Samples were analysed immediately after irradiation to determine the microbial count.
Samples were homogenised for 2 min in sterile peptone water (0.1%) using a Lab-blender 400 stomacher (Laboratory Equipment, London, UK). From this mixture, serial dilutions were prepared and appropriate ones were pour-plated in tryptic soy agar (TSA) (Difco, Laboratories, Detroit, Mich., USA) and incubated at 35° C., 24 hours for the numeration of E. coli and S. typhi.
The effect of various concentrations of carvacrol in irradiated ground beef was evaluated in order to determine if lower concentrations of carvacrol could also increase the irradiation sensitivity of E. coli and S. typhi in ground beef. For these experiments, sterile ground beef was contaminated with either E. coli or S. typhi to a final concentration of 10^5 CFU/g. Various concentrations of carvacrol ranging from 0 to 2.0% were added to the ground beef samples and transferred in portions of 25 g each to sterile petri plates (60×15 nmu) then stored at 4° C. until irradiation treatment (approximately 15 h).

Where [9] appears, read: ground beef irradiated at 1.75 kGy, thymol […], trans-cinnamaldehyde […].
The mark [10] stands for this setting: under air, trans-cinnamaldehyde […].
Setting [11] is: ground beef irradiated at 1.75 kGy, stored at 4° C., trans-cinnamaldehyde […].
Setting [12] is: trans-cinnamaldehyde alone (no irradiation), stored at 4° C.
Where [13] appears, read: ground beef, air, 4° C., carvacrol 1.0% alone or with ascorbic acid 0.5% and/or tetrasodium pyrophosphate 0.1%.

Regarding `Cc1ccc(C(C)C)c(O)c1` [Thymol, thymol], the entries for the “D10(kGy)” value in assay [1] and in assay [2] were 0.382 kGy and 0.779 kGy, respectively. Further, the “days of storage after which complete inhibition was produced” value in assay [3] (carvacrol 1.15%) came out at 28 days. The “bacterial counts compared with the irradiated control after 15 days of storage” value in assay [3] (carvacrol 1.15%, lower than control) was “sinilar in both cases”. Further, in assay [3], the “difference between samples irradiated in presence and absence of compound at day 7” value was found to be 3 log CFU. The “complete inhibition during storage” value in assay [4] (ground beef irradiated at 1.75 kGy, stored at 4° C., thymol […]) is recorded as “no complete inhibition”. The “level of bacteria observed for irradiated samples during storage” value in assay [4] (ground beef irradiated at 1.75 kGy, stored at 4° C., thymol […], 10^7 without thymol) is 10^4 CFU/g. For the same molecule, in assay [4] (setting [9]), the “reduction of bacterial counts by irradiation” value was determined as 3.5 log CFU. The “storage time before a bacterial count of approximately 6 log is reached” value in assay [4] was found to be 15 days. In addition, the shelf life period is recorded as 23 days in assay [5] (irradiated samples (1.75 kGy), control 8 days); 8 days in assay [5] (non-irradiated samples, control 2 days); 9 days in assay [6] (non-irradiated samples, 4° C., thymol […], control 2 days).
As to `O=C/C=C/c1ccccc1` [Trans-cinnamaldehyde, trans-cinnamaldehyde], the “D10(kGy)” value in assay [7] (ground beef packed under MAP (60% O2-30% CO2-10% N2), 4° C., trans-cinnamaldehyde […]) is listed as 0.046 ± 0.001^b* kGy; in assay [7] (ground beef packed under air, 4° C., trans-cinnamaldehyde […]) it was 0.115 ± 0.004^a* kGy; in assay [2] it was 0.494 kGy. Besides, the “Increase in Sensitivity” value in assay [7] (ground beef under MAP, trans-cinnamaldehyde […] vs control under the same atmosphere) came to 46.5%; in assay [7] (ground beef under air, trans-cinnamaldehyde […] vs control under the same atmosphere), 8.7%. Also, the “increase in irradiation sensitivity by modification of the packaging atmosphere” value in assay [7] (ground beef, MAP vs air, both with trans-cinnamaldehyde […]) is recorded as 60%. In addition, the “irradiation dose needed to completely eliminate E. coli from the ground beef” value in assay [7] (under MAP, trans-cinnamaldehyde […]) amounted to 0.25 kGy; in assay [7] (setting [10]), 0.6 kGy. In addition, the “irradiation dose to completely eliminate E. coli from ground beef” value in assay [7] (setting [10]) was 0.2 kGy. The “days for which bacterial counts remained below detectable levels” value in assay [4] (setting [11]) was no less than 44 days. In addition, the “reduction of bacterial counts by irradiation” value in assay [4] (setting [9]) is “more than 5 log CFU”. Moreover, the “storage time before a bacterial count of approximately 6 log is reached” value in assay [4] is given as “more than 35 days”. Moreover, the “days after which complete inhibition of bacterial growth resulted” value in assay [5] (setting [11]) turned out to be 3 days; in assay [6] (setting [11]) it was 1 days. Also, the “bacteria counts at day 44” value in assay [5] (setting [12]) is recorded as roughly 1 log CFU/g. The “bacterial population reached after 36 days of storage” value in assay [5] (without irradiation, stored at 4° C., trans-cinnamaldehyde […]) is recorded as 1 log CFU. Besides, the “day of storage at which complete inhibition occurred” value in assay [6] (setting [12]) stood at 36 days.
On to `Cc1ccc(C(C)C)cc1O` [Carvacrol, carvacrol], for which the “D10(kGy)” value in assay [7] (setting [13]) is 0.057 ± 0.0015^a kGy; in assay [1] it was 0.316 kGy. In addition, the “irradiation dose necessary to completely eliminate E. coli” value in assay [7] (setting [13]) worked out at 0.3 kGy. Moreover, the “factor by which the irradiation dose necessary to completely eliminate E. coli is lower than in the absence of active compounds” value in assay [7] (ground beef, air, 4° C., carvacrol 1.0% alone or with tetrasodium pyrophosphate 0.1%) is given as 2.3. The “Increase in Sensitivity” value in assay [7] (vs control, negative = protective effect, ground beef, air, 4° C., carvacrol 1.0% alone or with ascorbic acid 0.5% and/or tetrasodium pyrophosphate 0.1%) came to 55.5%; in assay [8] (carvacrol 0.50%), 15.4%; in assay [8] (carvacrol 1.00%), 39.0%; in assay [8] (carvacrol 1.75%), 100%; in assay [8] (carvacrol 2.00%), 100%. The “Log CFU/g” value in assay [8] (carvacrol 0.50%) is on record as 3.526 ± 0.061^b Log CFU/g; in assay [8] (carvacrol 1.00%), 2.545 ± 0.112^d Log CFU/g; in assay [8] (carvacrol 1.75%), 0.000 ± 0.000^g Log CFU/g; in assay [8] (carvacrol 2.00%), 0.000 ± 0.000^g Log CFU/g. In assay [3] (carvacrol 1.15%), the “days of storage after which complete inhibition was produced” value was 22 days.

These data come from US20050118310A1, “Formulations of compounds derived from natural sources and their use with irradiation for food preservation” (priority 2001, published 2005).
